Measurements reported in patent publication US20080076703A1, “Compositions and methods for the enhanced uptake of therapeutic agents through the bladder epithelium” (Cell Genesys, Inc., priority 2003, published 2008).

Tests used:
murine bladders [1] = assay: Oregon Green 488 Paclitaxel uptake in bladder after intravesical instillation (fluorescence microscopy of bladder sections); format: in vivo, Balb/c mice; details: DDM pretreatment 5 min; Oregon Green 488 Paclitaxel 5 μg instilled, retained 15 min
Experimental: (§1) Female Balb/c mice were used due to the ease of urethral cannulation and intravesical instillation. All animals were housed according to institutional regulations for experimental animals. Balb/c mice (20 gm body weight) were anesthetized with Isoflurane, and a 24-gauge catheter was introduced through the urethra into the bladder. The residual urine was emptied and the bladder was flushed three times with 100 μL of PBS employing a 25-gauge needle inserted into the external end of the catheter. […]
(§2) 70 μL of the solution was intravesically instilled in the bladder and retained for 15 min after which the bladder was washed 3 times with 100 μL each of PBS. […] Triplicate samples were adjusted to 2.00 mL with 0.2 M carbonate buffer (pH=9.34) and spectrophotometric emission was measured at 538 nm following excitation at 485 nm. […]
On examination of the histological sections of the bladder that had been pretreated with PBS followed by the intravesical retention of Paclitaxel, it was observed that there were very small patchy areas of non-specifically bound drug on the luminal surface of the bladder (FIGS. 1A-1C). Most of the bladder surface was devoid of any fluorescence that indicated the absence of any entry of the drug into the bladder tissue. […]

murine bladders [2] = assay: FITC-LC-TAT peptide uptake in bladder after intravesical instillation (fluorescence microscopy of bladder sections); format: in vivo, Balb/c mice; details: 0.1% DDM pretreatment; 5 μg FITC-LC-TAT instilled, retained 15 min
Experimental: as §1, with “catheter. After washing, bladder pretreatment was performed employing the various test reagents as follows: the pretreatment reagent (DDM) was diluted to the desired concentration in PBS, and the bladder was quickly rinsed twice with 100 μL each of the reagent. After the rinsing steps, 100 μL of the pretreatment reagent was introduced via the catheter and retained in the bladder for 5 minutes, followed by an additional quick rinse with the pretreatment reagent. The bladder was then washed three times with 100 μL each of PBS.” for “catheter.”
as §2

Mouse bladders = assay: Systemic uptake of intravesically instilled sodium fluorescein (serum fluorescence); format: in vivo, Balb/c mice; details: 0.1% DDM pretreatment 5 min, 0.1% sodium fluorescein instilled, retained 15 min
Experimental: as §1, §2
Fluorescein has been used to measure alterations in bladder permeability after bladder mucosal injury in mice [Eichel, L. et al., (2001) Urology. […] Following 3× wash of the bladder with PBS, blood was removed from the mice via cardiac puncture and the serum was analyzed for systemic distribution of intravesically instilled sodium fluorescein as described above. […]

[3] = system: urothelium (GAG layer, tight junctions); assay: Electron Microscopy of the DDM pretreated bladder; format: in vivo
bladder tissue = details: after DDM pretreatment; cited from earlier work

## CCCCCCCCCCCCO[C@@H]1O[C@H](CO)[C@@H](O[C@H]2O[C@H](CO)[C@@H](O)[C@H](O)[C@H]2O)[C@H](O)[C@H]1O [DDM, n-dodecyl-β-D-maltoside]
Murine bladders [1]
  uptake of Paclitaxel into bladder tissue (fluorescence): significant uptake
Murine bladders [2]
  FITC-LC-TAT fluorescent signal in epithelial layer on luminal surface of bladder: distinct signal
Mouse bladders
  increase in the circulating levels of fluorescein as compared to PBS pretreatment: 5-10 ×
[3]
  GAG layer on the urothelium (electron microscopy): absent
  tight junctions along the surface (electron microscopy): Disruption of tight junctions
Bladder tissue
  penetration of adenovirus particles (70 nm to 100 nm) into bladder tissue: able to penetrate the bladder tissue
